The values below come from article PMC9448382, “Fluorosulfate-containing pyrazole heterocycles as selective BuChE inhibitors: structure-activity relationship and biological evaluation for the treatment of Alzheimer’s disease” (Journal of Enzyme Inhibition and Medicinal Chemistry, 2022).

Entries after “also recorded” stand apart in the source; their conditions may differ.

The target of data set [1] is T1, recombinant human AChE (hAChE) (Homo sapiens, UniProt P22303).
T1 construct: purchased Sigma C1682
T1 sequence (P22303 32-614): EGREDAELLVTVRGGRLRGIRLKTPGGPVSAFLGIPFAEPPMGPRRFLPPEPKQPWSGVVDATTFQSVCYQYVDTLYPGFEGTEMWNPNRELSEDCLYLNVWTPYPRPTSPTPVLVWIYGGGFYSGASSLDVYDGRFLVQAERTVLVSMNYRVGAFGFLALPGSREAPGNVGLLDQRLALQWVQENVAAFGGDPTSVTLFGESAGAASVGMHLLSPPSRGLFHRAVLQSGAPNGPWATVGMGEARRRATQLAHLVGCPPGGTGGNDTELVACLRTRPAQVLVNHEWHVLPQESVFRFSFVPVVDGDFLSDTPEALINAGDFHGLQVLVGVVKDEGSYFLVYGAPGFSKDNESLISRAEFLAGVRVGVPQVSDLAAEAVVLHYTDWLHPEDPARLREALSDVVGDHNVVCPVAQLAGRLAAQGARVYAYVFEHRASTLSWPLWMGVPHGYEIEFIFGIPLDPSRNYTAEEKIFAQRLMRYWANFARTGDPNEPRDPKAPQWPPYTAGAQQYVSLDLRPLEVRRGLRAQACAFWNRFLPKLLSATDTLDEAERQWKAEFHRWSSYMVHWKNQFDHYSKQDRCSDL
Kind of data set: hAChE inhibition assay. It counts as biochemical. Here is the method: With 0.1 M pH 8 PBS, a DTNB solution (5 μM) was produced. Dissolve the test compound in DMSO to prepare a concentration of 2 × 10^−1 M stock solution. The solution was diluted in ethanol to five concentrations of 200, 100, 10, 1 and 0.1 μM, respectively. Measurement was carried out with 96-well plates, add 40 μL buffer, 10 μL test compound at a series of concentrations, and 10 μL AChE/BuChE in sequence. The mixture was then incubated at 37 °C for 10 min. Then add 20 μL DTNB, incubation at 37 °C for 10 min. […] For the blank value, 10 μL of ethanol was used instead of the inhibitor solution. The percentage of enzyme activity and the logarithm of compound concentration were used to express the inhibitory activity of compounds. IC50 was calculated by SPSS17.0.

Data set [2] has as its target T2, eqBuChE (Equus caballus, UniProt P81908).
T2 construct: BuChE from horse serum (C4290-1KU; Sigma); purchased Sigma C4290-1KU; host or cells: horse serum
The data set is described as follows: Kinetic study of eqBuChE inhibition. The data set is classed as biochemical, horse. The method, then: The same test settings were used for kinetic studies, with six concentrations of substrate (0.1‒1 mM) and four concentrations of inhibitor (0‒1.6 µM). The effect of different doses of compound K3 on BuChE catalytic activity at 37 °C was also investigated. The final concentration of enzyme was changed (0‒0.18 U/mL) under the same test conditions as indicated in the assay methodology. For the assessment of reversible and irreversible inhibitor binding at enzyme, different concentrations of compound K3 (0, 0.4, 0.8, and 1.6 µM) were utilised.

Data set [3] deals with human normal liver cells LO2. Kind of data set: Cytotoxicity MTT assay, L02 cells. The following applies: 50 μM, 24 h. The method, then: (§1) Human hepatoblastoma cells HepG2 and human normal liver cells LO2 cells were cultured at 37 °C in DMEM containing 10% foetal bovine serum, 100 U/mL penicillin, and […] streptomycin in a humidified incubator with 5% CO2. The methyl thiazolyl tetrazolium (MTT) assay was used to assess cell cytotoxicity. In a 96-well plate, HepG2 cells and LO2 cells were injected at 1 × 10^4 cells per well. The cells were treated with various substances that were diluted in DMEM for 24 h after being cultivated for 24 h. The cells were then treated for 4 h with 20 µL 0.5 mg/mL MTT reagent. The cell culture was withdrawn after 4 h, and 150 µL DMSO were added to dissolve the formazan. […] Three independent tests were used to calculate cell viability.
(§2) Blank: cultured with fresh medium only.
(In general: Tetrazolium assays rely on reduction of a dye to a coloured formazan, in cell work by metabolically active cells.)

For data set [4], the system named is human hepatoblastoma cells HepG2. Kind of data set: Cytotoxicity MTT assay, HepG2 cells. The conditions noted are these: 50 μM, 24 h. The method, then: as §1, §2
Data set [5] has as its system PC12 cells. Kind of data set: Neuroprotection assay against H2O2-induced PC12 cell injury. The data set is classed as cell-based. The conditions noted are these: Rattus norvegicus. The method, then:
PC12 cells were distributed at a density of 1 × 10^4 cells per well into 96-well microtiter plates. At time zero, cells were treated with a range of compounds K3 concentrations (1‒25 µM) and kept for 3 h after being incubated overnight. The media were then changed with new media containing the medication as well as a cytotoxic stimulus in the form of 100 µM H2O2, which was left for another 24 h. The MTT assay was used to determine cell viability after 24 h. In the cells, 20 µL of 0.5 mg/mL MTT reagent was applied and incubated for 4 h. The cell culture was removed after 4 h, and 150 µL DMSO was added to dissolve the formazan. The optical density was measured at 492 nm (OD492) on the Biotek Synergy HTX Multi-Mode reader. Results were adjusted considering OD measured in the blank.

Data set [6] concerns ICR mice. Kind of data set: In vivo acute toxicity evaluation. An excerpt: A total of 20 mice weighing 20‒25 g (F: M = 1: 1) were randomly allocated into two groups: control (n = 10) and experimental (n = 10). […] For two weeks, the mice's behaviour, appearance, and body weight changes were examined and documented. GraphPadPrism8.0 software was used to compare and summarise the body weights of the mice in the control and experimental groups.

The test system of data set [7] is male ICR mice. The data set is described as follows: In vivo hepatotoxicity evaluation. More on the design: species or system mouse. Here is the method:
. Mice were fasted for 24 h. Intragastrically, the combination was given at a dose of 30 mg/kg body weight with the same quantity of vehicle (po). […] A biochemical analyser was used to process the data (Hitachi 7020, Japan). Mice were slaughtered and livers were obtained for immunohistochemical morphological evaluation after the last sample of postglobular blood. We isolated two 3-mm sections of each liver from the hilum to the edge of the left lateral lobe using an ultra-thin semi-automatic microtome (LeicaRM2245, Germany), immediately placed them in 10% buffered formaldehyde, fixed them for 2 days, and embedded them in paraffin blocks using a paraffin-embedding station (LeicaEG1150H, Germany). Subsequently, five […] sections were prepared from these paraffin sections, deparaffinized, stained with haematoxylin and eosin (HE) or using the periodic acid-Schiff glycogen staining method.

The test system of data set [8] is Aβ1–42. Kind of data set: Brain Aβ1–42 total amount by mouse ELISA kit. The data set is classed as in vivo. The conditions noted are these: mice, Aβ1–42 icv model, K3 10 mg/kg po, donepezil 15 mg/kg po. The method, then:
In the Aβ1–42 oligomeric damage experiment, all mice were sacrificed after the behavioural research was completed, and the brains were collected to assess the total content of Aβ1–42 using a mouse ELISA kit. Each brain tissue sample was thoroughly homogenised in a grinder with 10 times PBS (pH = 7.4 ± 0.1) before being centrifuged for 5 min at 5000×g. The supernatant was separated for use. The detection technique followed the directions exactly, and the standard curve was created. Brain tissue Aβ1–42 content was calculated according to the linear regression equation. All values were expressed as mean ± SEM using GraphPadPrism8.0 software.

Where [9] appears, read: ICR mice, intragastric, 1.0 g/kg, 14 days.

T2 sequence (P81908 whole entry): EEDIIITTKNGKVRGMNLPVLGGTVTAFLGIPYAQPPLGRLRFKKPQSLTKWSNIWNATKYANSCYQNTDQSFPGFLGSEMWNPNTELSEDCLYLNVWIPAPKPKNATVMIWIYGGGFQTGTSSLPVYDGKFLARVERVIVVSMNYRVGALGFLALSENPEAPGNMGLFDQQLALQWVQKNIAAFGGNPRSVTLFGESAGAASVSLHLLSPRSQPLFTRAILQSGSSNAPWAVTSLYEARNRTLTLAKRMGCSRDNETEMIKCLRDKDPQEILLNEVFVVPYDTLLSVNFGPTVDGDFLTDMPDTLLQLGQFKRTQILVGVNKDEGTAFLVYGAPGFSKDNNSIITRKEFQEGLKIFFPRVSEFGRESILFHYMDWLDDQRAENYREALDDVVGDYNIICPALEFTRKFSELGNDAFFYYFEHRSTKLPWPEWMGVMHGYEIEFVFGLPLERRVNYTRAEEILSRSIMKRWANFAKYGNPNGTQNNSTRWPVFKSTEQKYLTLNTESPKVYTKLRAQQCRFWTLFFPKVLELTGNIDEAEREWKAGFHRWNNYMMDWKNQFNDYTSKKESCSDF

For orientation: inhibition means how much of the control response was suppressed. For orientation: Ki means the dissociation constant of the complex between target and ligand, obtained from inhibition or displacement. As usually defined, the viability is a read-out of living cells in per cent, often relative to untreated cells. Turning to `O=S(=O)(F)Oc1cc(-c2ccccc2)nn1-c1ccc(Cl)cc1` [Compound K3], the inhibition at 20 µM in data set [1] came to 31.6 ± 5.74%. In addition, the “reversibility of BuChE inhibition” value in data set [2] (K3 0, 0.4, 0.8, 1.6 μM, enzyme 0‒0.18 U/mL) is given as “reversible”. Moreover, in data set [2] (Lineweaver-Burk plots), the “type of BuChE inhibition” value is “mixed and non-competitive; also recorded: mixed, and non-competitive”. Further, in data set [2] (Lineweaver-Burk secondary plots, read-out: dissociation constant Ki), the Ki was 770 nM. The same compound had a cell survival rate in data set [3] of 94.4%. In addition, in data set [4], the cell survival rate is on record as 87.9%. Besides, in data set [5] (PC-12, 100 µM H2O2, compound 5 µM), the viability at 5 µM is 55.9%. The viability at 25 µM in data set [5] (PC-12, 100 µM H2O2, compound 25 µM) came to 69.3%. Also, in data set [6] (setting [9]), the “differences in body weight changes vs vehicle group” value was “not significant” and the “tolerability in single-dose acute toxicity assay” value is “well tolerated”. In data set [6] (mice, in vivo safety experiments), this compound returned a tolerated dose of 1000 mg/kg. Also, the “serum ALT and AST levels vs vehicle group” value in data set [7] (30 mg/kg po, 8, 22 and 36 h after single dosing) is listed as “No significant difference”. In addition, the liver histomorphology entry in data set [7] (30 mg/kg, 36 h after administration) was “no core necrosis or evident steatosis”. For the same compound, the “decrease of Aβ1–42 peptides in brain” value in data set [8] was 17.6%.
